From ChEMBL document CHEMBL3785017, “Induction of apoptosis and differentiation by atractylenolide-1 isolated from Atractylodes macrocephala in human leukemia cells” (Bioorg Med Chem Lett, 2016) come the findings set out here.

Each structure is given as a SMILES string. Converted amounts (≈) assume the structure as drawn. The source made the active and inactive calls. No cut-off for these calls is given here.

Assay [1] relates to U-937. Nature of the assay: Induction of phagocytosis in human U937 cells at 10 uM measured using fluorescent latex beads after 2 hrs by flow cytometry. The format is functional, cell-based.
In assay [2] the test system is K562. Description: Induction of cell differentiation in human K562 cells assessed as upregulation of CD14 at 10 uM after 72 hrs by flow cytometry. The format is functional, cell-based. On the technique in general: Flow cytometry measures light scatter and fluorescence of single cells or particles in a stream.
Assay [3] can be described thus: Induction of cell differentiation in human U937 cells assessed as upregulation of CD14 at 10 uM after 72 hrs by flow cytometry. The format is functional, cell-based. To be noted: U-937.
The subject of assay [4] is K562. Nature of the assay: Induction of phagocytosis in human K562 cells at 10 uM incubated for 4 to 6 days followed by fluorescent latex beads addition measured after 2 hrs by flow cytometry. It is filed as functional, cell-based.
Assay [5] relates to U-937. Nature of the assay: Induction of apoptosis in human U937 cells assessed as PARP degradation at 50 ug/ml after 24 hrs by Western blot analysis. It is filed as functional, cell-based. In general terms: Immunoblotting shows a protein as a band on a membrane.
The nature of assay [6]: Cytotoxicity against human U937 cells assessed as growth inhibition after 24 hrs by MTT assay. The format is functional, cell-based. The settings on record: U-937, 24 h. On the technique in general: Formazan colour is commonly taken as a measure of viable cells.
Assay [7] has as its system U-937. Description: Induction of cell death in human U937 at 12.5 to 25 ug/ml cells after 24 hrs. The format is functional, cell-based.
A short description of assay [8]: Cell cycle arrest in human Jurkat T cells assessed as accumulation at sub G1 phase at 50 ug/ml after 24 hrs by propidium iodide staining based flow cytometry (reference value: 0.9%). It is filed as functional.
The nature of assay [9]: Cytotoxicity against human Jurkat T cells assessed as growth inhibition after 12 hrs by MTT assay. It is filed as functional, cell-based.
Assay [10] in a line: Cytotoxicity against human Jurkat T cells assessed as growth inhibition after 24 hrs by MTT assay. The format is functional, cell-based.
For assay [11], the system named is Jurkat. Nature of the assay: Induction of apoptosis in human Jurkat T cells assessed as procaspase 3 degradation at 6.25 to 50 ug/ml after 24 hrs by Western blot analysis. It is filed as functional, cell-based.
Assay [12] can be described thus: Induction of cell differentiation in human U937 cells assessed as upregulation of CD14 at 6.25 ug/ml after 72 hrs by flow cytometry (reference value: 4.3%). The format is functional, cell-based. The settings on record: U-937.
For assay [13], the system named is K562. Nature of the assay: Cell cycle arrest in human K562 cells assessed as accumulation at sub G1 phase at 50 to 100 ug/ml after 48 hrs by propidium iodide staining based flow cytometry. It is filed as functional.
The test system of assay [14] is K562. Description: Induction of cell death in human K562 cells at 12.5 to 50 ug/ml after 48 hrs. It is filed as functional, cell-based.
Assay [15] is described as follows: Cell cycle arrest in human Jurkat T cells assessed as accumulation at sub G1 phase at 25 ug/ml after 24 hrs by propidium iodide staining based flow cytometry (reference value: 0.9%). It is filed as functional.
Assay [16] in a line: Cytotoxicity against human U937 cells assessed as growth inhibition after 48 hrs by MTT assay. The format is functional, cell-based. The settings on record: U-937, 48 h.
For assay [17], the system named is U-937. Nature of the assay: Induction of apoptosis in human U937 cells assessed as fragmented chromosomal DNA at 6.25 to 50 ug/ml after 12 to 48 hrs by agarose gel electrophoresis. The format is functional, cell-based.
The nature of assay [18]: Cell cycle arrest in human U937 cells assessed as accumulation at sub G1 phase at 50 to 100 ug/ml after 24 hrs by propidium iodide staining based flow cytometry. It is filed as functional. To be noted: U-937.
Assay [19] has as its system U-937. Description: Induction of phagocytosis in human U937 cells at 6.25 to 12.5 ug/ml measured using fluorescent latex beads after 2 hrs by flow cytometry relative to control. It is filed as functional.
Assay [20] in a line: Cell cycle arrest in human Jurkat T cells assessed as accumulation at sub G1 phase at 12.5 ug/ml after 24 hrs by propidium iodide staining based flow cytometry (reference value: 0.9%). The format is functional.
Assay [21] relates to K562. Nature of the assay: Induction of cell differentiation in human K562 cells assessed as upregulation of CD14 at 12.5 ug/ml after 72 hrs by flow cytometry (reference value: 6.4%). It is filed as functional.
In assay [22] the test system is Jurkat. Nature of the assay: Induction of apoptosis in human Jurkat T cells assessed as PARP degradation at 50 ug/ml after 24 hrs by Western blot analysis. It is filed as functional, cell-based.
Assay [23] concerns Jurkat. Description: Induction of apoptosis in human Jurkat T cells assessed as fragmented chromosomal DNA at 6.25 to 50 ug/ml after 12 to 48 hrs by agarose gel electrophoresis. It is filed as functional, cell-based.
The nature of assay [24]: Induction of cell differentiation in human U937 cells assessed as upregulation of CD68 at 12.5 ug/ml after 72 hrs by flow cytometry (reference value: 5.9%). It is filed as functional, cell-based. To be noted: U-937.
The subject of assay [25] is K562. Description: Cytotoxicity against human K562 CML cells assessed as growth inhibition treated with high doses of compound after 48 to 72 hrs by MTT assay. The format is functional, cell-based.
Assay [26] deals with U-937. Nature of the assay: Induction of apoptosis in human U937 cells assessed as procaspase 9 degradation at 6.25 to 50 ug/ml after 24 hrs by Western blot analysis. The format is functional, cell-based.
In assay [27] the test system is Jurkat. Nature of the assay: Induction of apoptosis in human Jurkat T cells assessed as procaspase 9 degradation at 6.25 to 50 ug/ml after 24 hrs by Western blot analysis. The format is functional, cell-based.
The test system of assay [28] is K562. Description: Induction of cell differentiation in human K562 cells assessed as upregulation of CD14 at 50 ug/ml after 72 hrs by flow cytometry (reference value: 6.4%). The format is functional.
The nature of assay [29]: Cytotoxicity against human Jurkat T cells assessed as growth inhibition after 48 hrs by MTT assay. It is filed as functional, cell-based.
In assay [30] the test system is Jurkat. Nature of the assay: Induction of cell death in human Jurkat T cells. It is filed as functional, cell-based.
The test system of assay [31] is U-937. Nature of the assay: Induction of apoptosis in human U937 cells assessed as procaspase 3 degradation at 6.25 to 50 ug/ml after 24 hrs by Western blot analysis. It is filed as functional, cell-based.
A short description of assay [32]: Induction of cell differentiation in human U937 cells assessed as upregulation of CD68 at 6.25 ug/ml after 72 hrs by flow cytometry (reference value: 5.9%). It is filed as functional, cell-based. The settings on record: U-937.
The subject of assay [33] is K562. Nature of the assay: Induction of cell differentiation in human K562 cells assessed as upregulation of CD14 at 0.1 uM after 72 hrs by flow cytometry (reference value: 6.4%). It is filed as functional.
Assay [34] is described as follows: Induction of cell differentiation in human U937 cells assessed as upregulation of CD68 at 0.1 uM after 72 hrs by flow cytometry (reference value: 5.9%). To be noted: U-937. The format is functional, cell-based.
Assay [35] relates to U-937. Nature of the assay: Induction of phagocytosis in human U937 cells at 0.1 uM measured using fluorescent latex beads after 2 hrs by flow cytometry. The format is functional, cell-based.
Assay [36] in a line: Induction of cell differentiation in human U937 cells assessed as upregulation of CD14 at 0.1 uM after 72 hrs by flow cytometry (reference value: 4.3%). It is filed as functional, cell-based. The settings on record: U-937.
Assay [37] relates to K562. Description: Induction of phagocytosis in human K562 cells at 0.1 uM preincubated for 4 to 6 days followed by addition of fluorescent latex beads measured after 2 hrs by flow cytometry. The format is functional, cell-based.

`CC[C@@]1(O)C(=O)OCc2c1cc1n(c2=O)Cc2cc3ccccc3nc2-1`: the result in assay [1], in [2], in [3] and in assay [4] was inactive.
For `C=C1CCC[C@]2(C)C=C3OC(=O)C(C)=C3C[C@@H]12` [ATRACTYLENOLIDE I], the outcome in assay [5], in assay [7], in assay [11], in [14], in [17] and in assay [22] was Active. The result in assay [23], in assay [26], in assay [27], in assay [30] and in assay [31] was Active. Further, the IC50 was 14.9 µg/mL (≈ 64.7 µM) in assay [6]; 44.7 µg/mL (≈ 194 µM) in assay [9]; 37.6 µg/mL (≈ 163 µM) in [10]; 4.23 µg/mL (≈ 18.4 µM) in [16]; 24.4 µg/mL (≈ 106 µM) in assay [29]. Also, the Activity in [8] is 32.3%; in assay [12] it was 25.6%; in [13] it was above 50%; in [15], 20.3%; in assay [18] it was above 50%; in assay [19], 50%. The Activity was 7.5% in assay [20]; 13.4% in [21]; 84.3% in [24]; 18.1% in [28]; 53.3% in [32]. In assay [25], the “growth inhibition (GI)” value was “Active”.
Regarding `CCCCCCCCCCCCCC(=O)O[C@@H]1[C@@H](C)[C@@]2(O)[C@@H](C=C(CO)C[C@]3(O)C(=O)C(C)=C[C@@H]23)[C@@H]2C(C)(C)[C@]12OC(C)=O` [PHORBOL MYRISTATE ACETATE], the Activity in assay [33] was 38.1%; in [34], 39.2%; in assay [36], 25%. Also, the result in [35] and in [37] was Active.

By IC50 is commonly meant the concentration that inhibits the measured activity by half.
